{"source": "paper PMC6719321", "about": "(Clinical Pharmacokinetics, 2019)", "key": {"[1]": {"settings": "cited from earlier work"}, "Trial 2": {"assay": "Trial 2", "format": "in vivo, human"}, "[2]": {"settings": "cited from earlier work", "remark": "listed apart in the source"}, "[3]": {"assay": "Trial 1: safety and tolerability, treatment-emergent adverse events", "format": "in vivo, human", "settings": "after warfarin 25 mg, day 9, one subject, moderate severity, possibly related to warfarin"}, "[4]": {"settings": "trial 2, oral semaglutide 20 mg once daily"}}}
{"compound": "subcutaneous semaglutide: semaglutide as once-weekly subcutaneous injection", "values": [{"measurement": "mean t½ for subcutaneous semaglutide", "setting": "[1]", "value": "156 to 160", "unit": "h"}]}
{"compound": "NCCCC[C@H](N[C@@H](CCc1ccccc1)C(=O)O)C(=O)N1CCC[C@H]1C(=O)O", "note": "[Lisinopril, lisinopril]", "values": [{"measurement": "tmax", "setting": "Trial 1; lisinopril 20 mg single dose alone, N = 52, median (minimum, maximum)", "value": 6.0, "unit": "h"}]}
{"compound": "CC[C@H](C)[C@H](NC(=O)[C@H](Cc1ccccc1)NC(=O)[C@H](CCC(=O)O)NC(=O)[C@H](CCCCNC(=O)COCCOCCNC(=O)COCCOCCNC(=O)CC[C@H](NC(=O)CCCCCCCCCCCCCCCCC(=O)O)C(=O)O)NC(=O)[C@H](C)NC(=O)[C@H](C)NC(=O)[C@H](CCC(N)=O)NC(=O)CNC(=O)[C@H](CCC(=O)O)NC(=O)[C@H](CC(C)C)NC(=O)[C@H](Cc1ccc(O)cc1)NC(=O)[C@H](CO)NC(=O)[C@H](CO)NC(=O)[C@@H](NC(=O)[C@H](CC(=O)O)NC(=O)[C@H](CO)NC(=O)[C@@H](NC(=O)[C@H](Cc1ccccc1)NC(=O)[C@@H](NC(=O)CNC(=O)[C@H](CCC(=O)O)NC(=O)C(C)(C)NC(=O)[C@@H](N)Cc1cnc[nH]1)[C@@H](C)O)[C@@H](C)O)C(C)C)C(=O)N[C@@H](C)C(=O)N[C@@H](Cc1c[nH]c2ccccc12)C(=O)N[C@@H](CC(C)C)C(=O)N[C@H](C(=O)N[C@@H](CCCNC(=N)N)C(=O)NCC(=O)N[C@@H](CCCNC(=N)N)C(=O)NCC(=O)O)C(C)C", "note": "[semaglutide]", "values": [{"measurement": "Mean AUC0–24h at steady state", "setting": "Trial 1; trial 1, oral semaglutide 20 mg once daily, after last dose (day 84)", "value": 0.76196, "unit": "µM·h"}, {"measurement": "mean t½", "setting": "Trial 1; trial 1, oral semaglutide 20 mg once daily, steady state", "value": 162, "unit": "h"}, {"measurement": "AUC0–24h at steady state, range of geometric means", "setting": "Trial 2; [4]", "value": "0.622 to 0.719", "unit": "µM·h"}, {"measurement": "Cmax at steady state, range of geometric means", "setting": "Trial 2; [4]", "value": "31.0 to 35.8", "unit": "nM"}]}
{"compound": "C[C@H]1O[C@@H](O[C@H]2[C@@H](O)C[C@H](O[C@H]3[C@@H](O)C[C@H](O[C@H]4CC[C@@]5(C)[C@H](CC[C@@H]6[C@@H]5C[C@@H](O)[C@]5(C)[C@@H](C7=CC(=O)OC7)CC[C@]65O)C4)O[C@@H]3C)O[C@@H]2C)C[C@H](O)[C@@H]1O", "note": "[Digoxin, digoxin]", "values": [{"measurement": "Reduction of Cmax on coadministration with liraglutide", "setting": "[2]", "value": "27–38%"}, {"measurement": "AUC on coadministration with exenatide", "setting": "[2]; digoxin PK", "value": "unchanged"}, {"measurement": "Decrease of Cmax on coadministration with exenatide", "setting": "[2]; digoxin PK", "value": 17, "unit": "%"}, {"measurement": "absorption (incomplete)", "setting": "[1]; oral", "value": "~ 70%"}, {"measurement": "half-life", "setting": "[1]; used to set the length of the washout periods, no reference given", "value": "30 to 50", "unit": "h"}, {"measurement": "tmax", "setting": "Trial 2; digoxin 500 μg single dose alone, N = 31, median (minimum, maximum)", "value": 1.0, "unit": "h"}, {"measurement": "mean t½", "setting": "Trial 2; digoxin single dose, alone and with oral semaglutide (both conditions)", "value": "42 to 43", "unit": "h"}]}
{"compound": "CN(C)C(=N)N=C(N)N", "note": "[Metformin, metformin]", "values": [{"measurement": "Increase in AUC on coadministration of multiple doses of dulaglutide", "setting": "[2]; steady-state metformin", "value": "up to 15%"}, {"measurement": "tmax generally reported", "setting": "[1]", "value": 2.5, "unit": "h"}, {"measurement": "tmax in trial 2", "setting": "Trial 2; metformin steady state, morning dose fasting", "value": "0.8 to 1.0", "unit": "h"}]}
{"compound": "CC(=O)CC(c1ccccc1)c1c(O)c2ccccc2oc1=O", "note": "(stereo not drawn) [Warfarin, warfarin]", "values": [{"measurement": "INRmax of the subject with a bleeding event (epistaxis)", "setting": "[3]", "value": 2.53}, {"measurement": "absorption", "setting": "[1]; oral", "value": "completely absorbed"}]}
